In patent US9688639B2, “Solid forms of fungicidal pyrazoles” (E. I. DU PONT DE NEMOURS AND COMPANY, priority 2013, dated 2017):

Legend:
Format in all cases: physicochemical
[1] = Single crystal X-ray diffraction (calculated density); details: from single crystal X-ray data collected at −100° C.
Experimental: Suitable single crystals for polymorph Form A were grown from methanol evaporation. A colorless irregular plate with approximate dimensions of 0.520×0.300×0.060 mm was chosen for data collection and mounted on a polymer loop. Single crystal data was collected using a Bruker Platform goniometer with an Apex-II detector. The diffractometer was equipped with an incident beam monochromator using Mo-Kα radiation (λ=0.71073 Å) and a monocap collimator. The crystals were cooled in a −100° C. nitrogen flow during data collection.
The data were indexed and integrated using the Apex-II suite of programs including Sainplus and SADABS. The monoclinic cell parameters were determined to be: a=7.870(5) Å, b=28.037(16) Å, c=7.976(5) Å, beta=103.875(10) °, volume=1708.6(17) Å^3. The space group was determined to be P21/n. The molecular weight was 412.66 g/mol giving a calculated density of 1.604 g/cm^3, and μ(Mo)=2.59 mm^−1 for Z=4. Data reduction led to 3487 unique data from a two-theta range=5.46 to 52.92°. […]
The data were indexed and integrated using the Apex-II suite of programs including Sainplus and SADABS. The orthorhombic cell parameters were determined to be: a=14.285(3) Å, b=11.464(2) Å, c=20.010(3) Å, volume=3276.9(10) Å^3. The space group was determined to be Pbca. The molecular weight was 412.66 g/mol giving a calculated density of 1.673 g/cm^3, and μ(Mo)=2.70 mm^−1 for Z=8. […]

[2] = Differential Scanning Calorimetry; details: DSC, heated at 2° C./min
Experimental: Differential Scanning Calorimetry was used to study the crystalline phases of various samples of Compound 1. Data were obtained with a TA Instruments Q20-1220 Differential Scanning Calorimeter (V24.2 Build 107) using a standard cell (FC-03859). Samples were prepared by weighing between 4 and 5 mg of Compound 1 in a gold plated pan (Fauske and Associates, LLC, Burr Ridge, Ill.; part number DSC-M20). The corresponding lid was crimped tightly to the pan and the assembled crucible was inserted into the calorimeter. An empty crucible of the same type was prepared the same way and inserted as the reference. After the instrument was initialized, the sample was first equilibrated at 25° C. and then heated at 2° C./min to a maximum temperature of 225° C.

[3] = Temperature-dependent X-ray powder diffraction (stability with respect to temperature); details: heated from 25° C. at 10° C. per minute; pXRD
Experimental: To assess the stability of polymorph Form B of Compound 1 with respect to temperature, X-ray powder diffraction patterns were obtained while heating a sample of Form B from 25° C. to above its melting point. The measurement was conducted at the 5-IDD beam line at the Advanced Photon Source synchrotron located at the Argonne National Laboratory (Argonne, Ill., USA). A Differential-Scanning Calorimeter (DSC, Model DSC600, Linkam Scientific Instruments, Tadworth, U.K.) was mounted in vertical orientation to allow insertion of the DSC into the X-ray beam. The DSC was positioned in the beam line to accept a 100-200 μm square beam under high vacuum. The standard quartz window was replaced with polyimide film (Kapton®, 8 μm thickness, DuPont, Wilmington, Del., USA). An internal thermocouple was installed for temperature recording. A circular charged couple device (CCD) detector (Model Mar165, 165 mm diameter, Marresearch GmbH, Norderstedt, Germany) was used to detect the X-rays scattered from the sample. The detector was equipped with an aluminum cone that covered the detector and extended 100 mm from the face of the detector. This cone was equipped with a beam stop support and 5×3 mm lead beam stop. The cone was continuously purged with helium to minimize air scattering. […]

Row | Structure (SMILES) | calculated density [1] [g/mL] | broad endotherm signal maximum (transition of Form B to Form A) [2] | heat of transition ([2]; Form B to Form A) [J/g] | temperature until which the form persists before it converts to polymorph Form A [3] [°C]
1 | Cc1nn(C)c(Nc2c(F)cccc2Cl)c1-c1ccc(F)cc1Br [polymorph Form A, 4-(2-bromo-4-fluorophenyl)-N-(2-chloro-6-fluorophenyl)-1,3-dimethyl-1H-pyrazol-5-amine] | 1.604 |  |  | 
2 | Cc1nn(C)c(Nc2c(F)cccc2Cl)c1-c1ccc(F)cc1Br [polymorph Form B, 4-(2-bromo-4-fluorophenyl)-N-(2-chloro-6-fluorophenyl)-1,3-dimethyl-1H-pyrazol-5-amine] | 1.673 | about 148 °C | 12 | 138
